Among the data in PubChem BioAssay AID192 (DTP/NCI, 2004) are T/C values, retold here.

The assay deals with BDF1 mice, B16 melanoma ip, median survival T/C. Nature of the assay: NCI In Vivo Anticancer Drug Screen. Data for tumor model B16 Melanoma (intraperitoneal) in B6D2F1 (BDF1) mice. To be noted: endpoint: median survival time, higher = longer survival. In short, it runs like this:
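Compounds were tested in mice carrying transplantable tumors. Survival or tumor size was recorded, and each value is the treated-group measurement (T) divided by that of the vehicle-treated control group (C).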

Setting [1] is: dose: 25.0 mg/kg/injection, schedule: Q01DX009 (ip), vehicle: Klucel (hydroxypropylcellulose) (HPC).
[2] abbreviates: dose: 50.0 mg/kg/injection, schedule: Q01DX009 (ip), vehicle: Klucel (hydroxypropylcellulose) (HPC).
[3] abbreviates: dose: 200.0 mg/kg/injection, schedule: Q01DX009 (ip), vehicle: Klucel (hydroxypropylcellulose) (HPC).
[4] abbreviates: dose: 12.5 mg/kg/injection, schedule: Q01DX009 (ip), vehicle: saline with Tween-80.
Setting [5] is: dose: 12.5 mg/kg/injection, schedule: Q01DX009 (ip), vehicle: saline.
Setting [6] is: dose: 25.0 mg/kg/injection, schedule: Q01DX009 (ip), vehicle: saline.
Setting [7] is: dose: 50.0 mg/kg/injection, schedule: Q01DX009 (ip), vehicle: saline.
Where [8] appears, read: dose: 100.0 mg/kg/injection, schedule: Q01DX009 (ip), vehicle: saline.
The mark [9] stands for this setting: dose: 200.0 mg/kg/injection, schedule: Q01DX009 (ip), vehicle: saline.
[10] abbreviates: dose: 400.0 mg/kg/injection, schedule: Q01DX009 (ip), vehicle: saline.

SMILES strings stand for the structures. “And” between values parts separate entries of the source, which are not always exact repeats. Equal entries are not always repeated. Inconclusive results and toxic doses are left out. Numbered stars: 1 amine (or outer) side, 2 acyl side, 3 side chain; on linkers, the order of the positions; unused ones are H or OH. Bridge positions count the residues as written; N and C are the ends. Square brackets hold non-standard residues; d marks the D form. Peptide text beside a SMILES is read from it. I, II: the chains in the order shown. Actinocin(9to1) = Cc1c2oc3c(C)ccc(C(=O)[*:1])c3nc-2c(C(=O)[*:2])c(N)c1=O; NMeV = CN[CH](C(=O)O)C(C)C; Pip = O=C(O)[CH]1CCCCN1; Sar = CNCC(=O)O

With `Cc1ccc(NS(=O)(=O)c2ccccc2)c(C)c1`, the T/C is 86 % of control (dose: 75.0 mg/kg/injection, schedule: Q01DX009 (ip), vehicle: Klucel (hydroxypropylcellulose) (HPC)); 87 % of control (dose: 150.0 mg/kg/injection, schedule: Q01DX009 (ip), vehicle: Klucel (hydroxypropylcellulose) (HPC)); 92 % of control (dose: 300.0 mg/kg/injection, schedule: Q01DX009 (ip), vehicle: Klucel (hydroxypropylcellulose) (HPC)).
On to `COc1cc(-c2ccc(N=Nc3ccc4c(S(=O)(=O)O)cc(S(=O)(=O)O)c(N)c4c3O)c(OC)c2)ccc1N=Nc1ccc2c(S(=O)(=O)O)cc(S(=O)(=O)O)c(N)c2c1O`, for which the T/C runs as follows: (dose: 12.5 mg/kg/injection, schedule: Q01DX009 (ip), vehicle: Klucel (hydroxypropylcellulose) (HPC)) 88 % of control; under setting [1], 97 % of control; under setting [2], 102 % of control.
In the case of `COc1cccc2c1cc([N+](=O)[O-])c1c(C(=O)O)cc3c(c12)OCO3`, the T/C (dose: 2.5 mg/kg/injection, schedule: Q01DX009 (ip), vehicle: Klucel (hydroxypropylcellulose) (HPC)) was 106 % of control; the T/C (dose: 5.0 mg/kg/injection, schedule: Q01DX009 (ip), vehicle: Klucel (hydroxypropylcellulose) (HPC)) is 111 % of control; the T/C (dose: 10.0 mg/kg/injection, schedule: Q01DX009 (ip), vehicle: Klucel (hydroxypropylcellulose) (HPC)) is 94 % of control.
Consider `O=C1OC(COCC#Cc2ccccc2)CN1c1ccccc1` (configuration not stated), for which the T/C under setting [1] is 97 % of control; the T/C under setting [2] was 93 % of control; the T/C (dose: 100.0 mg/kg/injection, schedule: Q04DX003 (ip), vehicle: saline with Tween-80) was 102 % of control; the T/C under setting [3] is 91 % of control; the T/C (dose: 200.0 mg/kg/injection, schedule: Q04DX003 (ip), vehicle: saline with Tween-80) was 105 % of control; the T/C (dose: 400.0 mg/kg/injection, schedule: Q01DX009 (ip), vehicle: Klucel (hydroxypropylcellulose) (HPC)) was 91 % of control. Also, the T/C (dose: 400.0 mg/kg/injection, schedule: Q04DX003 (ip), vehicle: saline with Tween-80) was 108 % of control.
For the molecule `C1COC(NC2CC3CCC2C3)=N1` (configuration not stated), the T/C reads like this: (dose: 6.25 mg/kg/injection, schedule: Q01DX009 (ip), vehicle: saline with Tween-80) 107 % of control; under setting [4], 100 % of control; (dose: 25.0 mg/kg/injection, schedule: Q01DX009 (ip), vehicle: saline with Tween-80) 100 % of control.
In the case of `C1#CCCCCCC#CCCCC1`, the T/C is, setting by setting: under setting [4], 89 % of control; (dose: 12.5 mg/kg/injection, schedule: Q04DX003 (ip), vehicle: saline with Tween-80) 91 % of control; (dose: 25.0 mg/kg/injection, schedule: Q04DX003 (ip), vehicle: saline with Tween-80) 97 % of control; (dose: 50.0 mg/kg/injection, schedule: Q01DX009 (ip), vehicle: saline with Tween-80) 100 % of control; (dose: 50.0 mg/kg/injection, schedule: Q04DX003 (ip), vehicle: saline with Tween-80) 89 % of control and 94 % of control.
Consider `CCC12C=CCN3CCC4(c5cc(C(c6cccnc6)c6cc7ccccc7n6C)c(OC)cc5N(C)C4C(O)(C(=O)OC)C1OC(C)=O)C32` (configuration not stated), for which the T/C was 109 % of control (dose: 0.06 mg/kg/injection, schedule: Q01DX009 (ip), vehicle: water); 103 % of control (dose: 0.13 mg/kg/injection, schedule: Q01DX009 (ip), vehicle: water); 100 % of control (dose: 0.25 mg/kg/injection, schedule: Q01DX009 (ip), vehicle: water); 113 % of control (dose: 0.5 mg/kg/injection, schedule: Q01DX009 (ip), vehicle: water); 110 % of control (dose: 1.0 mg/kg/injection, schedule: Q01DX009 (ip), vehicle: water); 104 % of control (dose: 2.0 mg/kg/injection, schedule: Q01DX009 (ip), vehicle: other). Further, the T/C was 107 % of control (dose: 2.0 mg/kg/injection, schedule: Q01DX009 (ip), vehicle: water); 95 % of control (dose: 4.0 mg/kg/injection, schedule: Q01DX009 (ip), vehicle: other); 101 % of control (dose: 8.0 mg/kg/injection, schedule: Q01DX009 (ip), vehicle: other); 105 % of control (dose: 16.0 mg/kg/injection, schedule: Q01DX009 (ip), vehicle: other); 106 % of control (dose: 32.0 mg/kg/injection, schedule: Q01DX009 (ip), vehicle: other).
For `CC[C@]1(O)C[C@H](OC2CC(N(C)C)C(OC3CC(O)C(O)C(C)O3)C(C)O2)c2c(cc3c(c2O)C(=O)c2c(O)ccc(O)c2C3=O)[C@H]1C(=O)OC` (some centres not stated), the T/C was 113 % of control (dose: 0.2 mg/kg/injection, schedule: Q01DX009 (ip), vehicle: carboxymethylcellulose (CMC)); 120 % of control (dose: 0.25 mg/kg/injection, schedule: Q01DX009 (ip), vehicle: saline with Tween-80); 94 % of control (dose: 0.4 mg/kg/injection, schedule: Q01DX009 (ip), vehicle: carboxymethylcellulose (CMC)); 159 % of control (dose: 1.0 mg/kg/injection, schedule: Q01DX009 (ip), vehicle: saline with Tween-80); 179 % of control (dose: 2.0 mg/kg/injection, schedule: Q01DX009 (ip), vehicle: saline with Tween-80).
As for `COc1ccc(-n2c(=S)[nH]c3ccccc3c2=O)cc1`, the T/C runs as follows: (dose: 100.0 mg/kg/injection, schedule: Q01DX009 (ip), vehicle: Klucel (hydroxypropylcellulose) (HPC)) 97 % of control; under setting [3], 88 % of control.
Consider `Cc1c2oc3c(C)ccc(C(=O)NC4C(=O)NC(C(C)C)C(=O)N5CCCCC5C(=O)N(C)CC(=O)N(C)C(C(C)C)C(=O)OC4C)c3nc-2c(C(=O)NC2C(=O)NC(C(C)C)C(=O)N3CCCCC3C(=O)N(C)CC(=O)N(C)C(C(C)C)C(=O)OC2C)c(N)c1=O` (configuration not stated) (I: TV[Pip][Sar][NMeV] / II: TV[Pip][Sar][NMeV]; ester I:1-I:C, II:1-II:C; linker I:N-II:N via Actinocin(9to1); configuration not given here), for which the T/C runs as follows: (dose: 0.25 mg/kg/injection, schedule: Q01DX009 (ip), vehicle: saline + alcohol) 120 % of control; (dose: 0.5 mg/kg/injection, schedule: Q01DX009 (ip), vehicle: saline + alcohol) 123 % of control; (dose: 0.75 mg/kg/injection, schedule: Q04DX003 (ip), vehicle: saline + alcohol) 99 % of control and 116 % of control; (dose: 1.5 mg/kg/injection, schedule: Q04DX003 (ip), vehicle: saline + alcohol) 111 % of control and 116 % of control; (dose: 2.0 mg/kg/injection, schedule: Q01DX009 (ip), vehicle: saline + alcohol) 157 % of control; (dose: 6.0 mg/kg/injection, schedule: Q04DX003 (ip), vehicle: saline + alcohol) 155 % of control.
For `CN(C)c1n[nH]c(N)n1`, the T/C under setting [5] is 91 % of control; the T/C under setting [6] is 102 % of control; the T/C under setting [7] is 95 % of control; the T/C under setting [8] is 96 % of control; the T/C under setting [9] was 102 % of control; the T/C under setting [10] was 104 % of control.
In the case of `C#CCSC(=S)NNc1ccccc1`, the T/C is 106 % of control (dose: 100.0 mg/kg/injection, schedule: Q01DX009 (ip), vehicle: saline with Tween-80) and 112 % of control (dose: 200.0 mg/kg/injection, schedule: Q01DX009 (ip), vehicle: saline with Tween-80).
Consider `OCC1(CO)COC2(CCCCC2)N1`, for which the T/C under setting [5] was 110 % of control; the T/C under setting [6] was 116 % of control; the T/C under setting [7] is 109 % of control; the T/C under setting [8] is 103 % of control; the T/C under setting [9] was 112 % of control; the T/C under setting [10] is 108 % of control.
With `CN1C(=O)OC(C)(C)C1=O`, the T/C reads like this: (dose: 0.78 mg/kg/injection, schedule: Q04DX003 (ip), vehicle: saline) 95 % of control; (dose: 1.56 mg/kg/injection, schedule: Q04DX003 (ip), vehicle: saline) 100 % of control; (dose: 3.12 mg/kg/injection, schedule: Q04DX003 (ip), vehicle: saline) 105 % of control; (dose: 6.25 mg/kg/injection, schedule: Q04DX003 (ip), vehicle: saline) 105 % of control; (dose: 12.5 mg/kg/injection, schedule: Q04DX003 (ip), vehicle: saline) 100 % of control; under setting [6], 110 % of control. For the same molecule, the T/C runs as follows: under setting [7], 100 % of control; under setting [8], 100 % of control; under setting [9], 97 % of control; under setting [10], 94 % of control.
